Patent US20110173718A1, “HERBICIDE TOLERANT PLANTS” (SYNGENTA CROP PROTECTION, INC., priority 2008, published 2011)

Test system: HST in spinach chloroplast extract
Test: HST assay (TLC, MFBQ formed), spinach chloroplast extract
Assay type: biochemical
Details: 25 ppm; TLC, estimated amount of MFBQ formed, relative to controls
Protocol: HST enzyme preparations for assay are also prepared directly from fresh plant material. For example HST enzyme preparations are from spinach. In the first step intact spinach chloroplasts are prepared from two lots of 500 g of fresh baby spinach leaves (e.g from the salad section of the local supermarket). Prepacked spinach is usually already washed, but if buying loose leaves these must be rinsed in water before proceeding. Stalks, large leaves and mid-ribs are removed. Each 500 g lot of leaves is added to 1.5 l of ‘Grinding medium’ in a 2 L plastic beaker. Grinding medium is cold (4° C.) 50 mM Tricine/NaOH buffer at pH 7.1 containing 330 mM glucose, 2 mM sodium isoascorbate, 5 mM MgCl2 and 0.1% bovine serum albumen The beaker, kept at 4° C., is placed under a Polytron 6000 blender, fitted with a 1.5″cutting probe and the mixture blended in short bursts of 5-8 sec up to 8-10K rpm until all the leaves are macerated. The homogenate is filtered into a 5 L beaker (embedded in an ice bucket) through four layers of muslin, and two layers of 50μ mesh nylon cloth. The filtrate is transferred to 250 ml buckets of a Beckman GS-6 centrifuge and spun at […] (3020 rpm) for 2 min at 4° C. The supernatant is drained away and discarded to leave a sediment of chloroplasts. Chloroplasts are resuspended in a few ml of cold resuspension medium by gentle swirling and gentle use of a quill brush soaked in resuspension medium. Resuspension medium is 50 mM Hepes/KOH pH 7.8 containing 330 mM sorbitol, 2 mM EDTA, 5 mM KH2PO4, 2 mM MgCl2 and 0.1% bovine serum albumen at 4° C. The chloroplasts are resuspended in 5-10 ml of resuspension buffer, recentrifuged down and resuspended again in order to wash them. The chloroplasts are then once again centrifuged down and then broken by resuspension in about 5 ml of 50 mM Tricine-NaOH pH 7.8 to a protein concentration of about 40 mg/ml. The solution is stored frozen at −80° C. in aliquots. This resuspension is defrosted and used directly in HST activity assays. Alternatively, chloroplasts are prepared resuspended in 50 mM Tris/HCl buffer at pH 7.8 containing 330 mM sorbitol (alternative resuspension buffer) and layered on top of a percol gradient (comprising the same buffer containing 45% percol), spun down, the intact chloroplast fraction taken and washed 2 or 3 times in the alternative resuspension buffer and then spun down again, resuspended in breaking buffer (without sorbitol), flash frozen and stored in aliquots at −80° C.
Prenyltransferase (HST) activities are measured by determining the prenylation rates of [U—^14C]homogentisate using farnesyl diphosphate (FDP) as prenyl donor. ^14C homogentisate is prepared from ^14C tyrosine using L amino acid oxidase and HPPD. For inhibitor testing, compounds are dissolved in dimethylsulfoxide (DMSO). DMSO added at up to 2% v/v has no effect on assays. Control assays contain DMSO at the same concentration as in inhibitor containing assays.
Assays using spinach chloroplast extracts (100 μl final volume) contain up to 2 mg of chloroplast protein, 50 mM Tricine-NaOH pH 8.5, 50 mM MgCl2, 200 μM farnesyl diphosphate (FDP) and 26 μM ^14C-homogentisate (167 dpm/pmol). Assays are run for about an hour at 28° C. […] Lipophilic reactions products are extracted and analyzed essentially as described in the literature.
Using the above assays percentage inhibition of the amount of MFBQ formed at a range of doses of inhibitors relative to the control amount obtained with no inhibitor present is reported (Table 1). The better inhibitors give greater percentage inhibition at lower doses.

Compared with `O=c1c(-c2cc(C(F)(F)F)ccc2Cl)c(O)c2nccnc2n1CC(F)F` [Compound 2.9], `O=c1c(-c2c(Cl)ccc(Cl)c2Cl)c(O)c2nccnc2n1CC(F)F` [Compound 2.14] is lower in “Spinach chloroplast extract % I at 25 ppm” value: 90% for the first, 80% for the second.

First: O=c1c(-c2c(F)ccc(F)c2Cl)c(O)c2cccnc2n1CC(F)F [Compound 2.13]
Second: O=c1c(-c2c(F)ccc(Br)c2Cl)c(O)c2nccnc2n1CC(F)F [Compound 2.8]
The “Spinach chloroplast extract % I at 25 ppm” value of the first is lower: 40% for the first, 70% for the second.

In the case of `Oc1c(Cl)c(F)nc(F)c1Cl` [Compound 1.1, haloxydine], the “Spinach chloroplast extract % I at 25 ppm” value is reported as 70%.

Same assay, conditions: final concentration 500 ppm

In the case of `Oc1c(Cl)c(F)nc(F)c1Cl` [Compound 1.1, haloxydine], the “inhibition of the HST reaction” value is reported as “completely inhibit”.
